Laboratory results reported in PubChem BioAssay AID1963451 (Molecular Pharmacology Branch, DTP, NCI, 2024).
Values joined by “and” are separate entries in the source; they are usually repeats but may differ in a detail not shown here. Equal entries are not always repeated.

Test system: 521955-158-R6-J3-PDC complex spheroid growth, % test/control
Experiment: Anticancer human tumor 521955-158-R6-J3-PDC patient-derived pancreatic carcinoma cell line growth inhibition [Asc]
Conditions: for viability, T/C: stronger effect = lower value
Summary of the method: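 Tumor cells were grown as complex spheroids with human endothelial cells (HUVEC) and human mesenchymal stem cells as stroma. Agents were tested alone and in combination, in half-log steps down from the clinical Cmax, or from 10 microM where Cmax was unknown.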
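Also: spheroids exposed to compounds for 7 days.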
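For viability, T/C in this document: 100% = DMSO vehicle control wells.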

## O=C(c1cc(Cc2n[nH]c(=O)c3ccccc23)ccc1F)N1CCN(C(=O)C2CC2)CC1 + CNC(C)C(=O)NC1CN(S(=O)(=O)c2cccc(S(=O)(=O)N3CCC4CCC(C(=O)NC(c5ccccc5)c5ccccc5)N4C(=O)C(NC(=O)C(C)NC)C3)c2)CCC2CCC(C(=O)NC(c3ccccc3)c3ccccc3)N2C1=O
Curve of first compound, second compound 0.00316 µM
  IC50: > 10 µM
Curve of first compound, second compound 0.01 µM
  IC50: > 10 µM
Curve of first compound, second compound 0.0316 µM
  IC50: > 10 µM
Curve of first compound, second compound 0.1 µM
  IC50: > 10 µM
Curve of first compound, second compound 0.316 µM
  IC50: > 10 µM
Curve of first compound, second compound 1 µM
  IC50: > 10 µM
Second compound 0.00316 µM, first compound 0.0316 µM
  viability, T/C: 159%
Second compound 0.00316 µM, first compound 0.1 µM
  viability, T/C: 159%
Second compound 0.00316 µM, first compound 0.316 µM
  viability, T/C: 153%
Second compound 0.00316 µM, first compound 1 µM
  viability, T/C: 151%
Second compound 0.00316 µM, first compound 3.16 µM
  viability, T/C: 155%
Second compound 0.00316 µM, first compound 10 µM
  viability, T/C: 160%
Second compound 0.01 µM, first compound 0.0316 µM
  viability, T/C: 166%
Second compound 0.01 µM, first compound 0.1 µM
  viability, T/C: 133%
Second compound 0.01 µM, first compound 0.316 µM
  viability, T/C: 148%
Second compound 0.01 µM, first compound 1 µM
  viability, T/C: 153%
Second compound 0.01 µM, first compound 3.16 µM
  viability, T/C: 138%
Second compound 0.01 µM, first compound 10 µM
  viability, T/C: 119%
Second compound 0.0316 µM, first compound 0.0316 µM
  viability, T/C: 97.5%
Second compound 0.0316 µM, first compound 0.1 µM
  viability, T/C: 87.8%
Second compound 0.0316 µM, first compound 0.316 µM
  viability, T/C: 87.7%
Second compound 0.0316 µM, first compound 1 µM
  viability, T/C: 74.3%
Second compound 0.0316 µM, first compound 3.16 µM
  viability, T/C: 132%
Second compound 0.0316 µM, first compound 10 µM
  viability, T/C: 84.9%
Second compound 0.1 µM, first compound 0.0316 µM
  viability, T/C: 92%
Second compound 0.1 µM, first compound 0.1 µM
  viability, T/C: 81.5%
Second compound 0.1 µM, first compound 0.316 µM
  viability, T/C: 87.4%
Second compound 0.1 µM, first compound 1 µM
  viability, T/C: 85.8%
Second compound 0.1 µM, first compound 3.16 µM
  viability, T/C: 138%
Second compound 0.1 µM, first compound 10 µM
  viability, T/C: 82.3%
Second compound 0.316 µM, first compound 0.0316 µM
  viability, T/C: 92.5%
Second compound 0.316 µM, first compound 0.1 µM
  viability, T/C: 81.5%
Second compound 0.316 µM, first compound 0.316 µM
  viability, T/C: 74.3%
Second compound 0.316 µM, first compound 1 µM
  viability, T/C: 72.7%
Second compound 0.316 µM, first compound 3.16 µM
  viability, T/C: 138%
Second compound 0.316 µM, first compound 10 µM
  viability, T/C: 81.7%
Second compound 1 µM, first compound 0.0316 µM
  viability, T/C: 93.3%
Second compound 1 µM, first compound 0.1 µM
  viability, T/C: 85.4%
Second compound 1 µM, first compound 0.316 µM
  viability, T/C: 95.1%
Second compound 1 µM, first compound 1 µM
  viability, T/C: 89.3%
Second compound 1 µM, first compound 3.16 µM
  viability, T/C: 138%
Second compound 1 µM, first compound 10 µM
  viability, T/C: 80.8%

## COc1c(OCCCN2CCOCC2)ccc2c3n(c(=NC(=O)c4cnc(N)nc4)nc12)CCN3
Compound 0.00316 µM
  viability, T/C: 83.2% and 98.8% and 91.5%
Compound 0.01 µM
  viability, T/C: 97.2% and 78.8% and 72.1%
Compound 0.0316 µM
  viability, T/C: 76.5% and 75.6% and 63.8%
Compound 0.1 µM
  viability, T/C: 62.5% and 81.4% and 64.8%
Compound 0.316 µM
  viability, T/C: 41.9% and 61.3% and 48.6%
Compound 1 µM
  viability, T/C: 34.7% and 40% and 32.8%
Curve of compound
  IC50: 0.592 µM and 0.275 µM and 0.177 µM

## Cn1ncnc1[C@H]1c2n[nH]c(=O)c3cc(F)cc(c23)N[C@@H]1c1ccc(F)cc1 + CCN1C(C(=O)NC23CCC(C(=O)O)(CC2)CC3)C(c2cccc(Cl)c2F)C2(C(=O)Nc3cc(Cl)ccc32)C12CCCCC2
Curve of first compound, second compound 0.00949 µM
  IC50: > 0.1 µM
Curve of first compound, second compound 0.03 µM
  IC50: > 0.1 µM
Curve of first compound, second compound 0.0949 µM
  IC50: > 0.1 µM
Curve of first compound, second compound 0.3 µM
  IC50: > 0.1 µM
Curve of first compound, second compound 0.949 µM
  IC50: > 0.1 µM
Curve of first compound, second compound 3 µM
  IC50: > 0.1 µM
Second compound 0.00949 µM, first compound 0.000316 µM
  viability, T/C: 114%
Second compound 0.00949 µM, first compound 0.001 µM
  viability, T/C: 102%
Second compound 0.00949 µM, first compound 0.00316 µM
  viability, T/C: 98.8%
Second compound 0.00949 µM, first compound 0.01 µM
  viability, T/C: 91.7%
Second compound 0.00949 µM, first compound 0.0316 µM
  viability, T/C: 78.9%
Second compound 0.00949 µM, first compound 0.1 µM
  viability, T/C: 91.2%
Second compound 0.03 µM, first compound 0.000316 µM
  viability, T/C: 100%
Second compound 0.03 µM, first compound 0.001 µM
  viability, T/C: 94.1%
Second compound 0.03 µM, first compound 0.00316 µM
  viability, T/C: 100%
Second compound 0.03 µM, first compound 0.01 µM
  viability, T/C: 99.5%
Second compound 0.03 µM, first compound 0.0316 µM
  viability, T/C: 97.5%
Second compound 0.03 µM, first compound 0.1 µM
  viability, T/C: 94.6%
Second compound 0.0949 µM, first compound 0.000316 µM
  viability, T/C: 95.7%
Second compound 0.0949 µM, first compound 0.001 µM
  viability, T/C: 94.8%
Second compound 0.0949 µM, first compound 0.00316 µM
  viability, T/C: 101%
Second compound 0.0949 µM, first compound 0.01 µM
  viability, T/C: 102%
Second compound 0.0949 µM, first compound 0.0316 µM
  viability, T/C: 94.3%
Second compound 0.0949 µM, first compound 0.1 µM
  viability, T/C: 98.9%
Second compound 0.3 µM, first compound 0.000316 µM
  viability, T/C: 97.2%
Second compound 0.3 µM, first compound 0.001 µM
  viability, T/C: 97.7%
Second compound 0.3 µM, first compound 0.00316 µM
  viability, T/C: 99.4%
Second compound 0.3 µM, first compound 0.01 µM
  viability, T/C: 80.5%
Second compound 0.3 µM, first compound 0.0316 µM
  viability, T/C: 98.3%
Second compound 0.3 µM, first compound 0.1 µM
  viability, T/C: 102%
Second compound 0.949 µM, first compound 0.000316 µM
  viability, T/C: 104%
Second compound 0.949 µM, first compound 0.001 µM
  viability, T/C: 100%
Second compound 0.949 µM, first compound 0.00316 µM
  viability, T/C: 114%
Second compound 0.949 µM, first compound 0.01 µM
  viability, T/C: 87.5%
Second compound 0.949 µM, first compound 0.0316 µM
  viability, T/C: 96.3%
Second compound 0.949 µM, first compound 0.1 µM
  viability, T/C: 99.8%
Second compound 3 µM, first compound 0.000316 µM
  viability, T/C: 100%
Second compound 3 µM, first compound 0.001 µM
  viability, T/C: 90.4%
Second compound 3 µM, first compound 0.00316 µM
  viability, T/C: 108%
Second compound 3 µM, first compound 0.01 µM
  viability, T/C: 82%
Second compound 3 µM, first compound 0.0316 µM
  viability, T/C: 98.6%
Second compound 3 µM, first compound 0.1 µM
  viability, T/C: 99%
